We go through 1 compound from patent US9980936B2, “BH4 antagonists and methods related thereto” (Emory University, priority 2014, dated 2018).

The procedure of series [1]:
In order to define the appropriate doses for in vivo experimentation, the maximum tolerated dose (MTD) was determined. Nu/Nu nude mice were treated in groups of 6 per dose level with increasing doses of BDA-366 (10-50 mg/kg/d) intraperitoneally (i.p.) for up to 12 days. […] Standard single-dose MTD treatment in normal C57BL/6 mice were measured. […] 10% of single dose MTD can usually be considered as the maximum therapeutic dose (30˜40 mg/kg) for continuous treatment.

Series [2] relates to H460 or DMS53 cells expressing Bcl2 shRNA transfected with AAAA Bcl2 mutant. The experiment in a line: rescue of Bcl2-silenced cells with AAAA Bcl2 mutant. The format is cell-based. Particulars: 72 h. From the text: (§1) Whether expression of exogenous Bcl2 can restore the sensitivity of Bcl2-silenced lung cancer cells to BDA-2 and whether the BDA-2/BH4 binding is important for such effect was examined. WT and BDA-2 binding deficient D10A/N11A/R12A/E13A (AAAA) Bcl2 mutant cDNA in pCIneo or vector-only control were transfected into H460 or DMS53 cells expressing Bcl2 shRNA. It has been reported that if the shRNA is directed to the 3′ UTR or 5′ UTR of the gene, the effect of the shRNA1 can be rescued by ectopically expressing the protein using the wild-type or mutant cDNA. Because Bcl2 shRNA1 targets the 5′UTR of endogenous Bcl2, the silencing effect of shRNA1 on Bcl2 expression could be rescued by transfection of exogenous WT or AAAA Bcl2 mutant. After transfection, cells were treated with BDA-2 or the BH3 mimetic ABT-199 at the indicated concentrations for 72 h. […] The apoptotic effect of BDA-2 on lung cancer cells requires its BH4 binding.

The test system of series [3] is human lung cancer cell lines. The experiment in a line: sensitivity of lung cancer cell lines versus ABT-737. The format is cell-based.
For another series, the target named is Bfl-1/A1 (Homo sapiens, UniProt Q16548). Briefly: binding to other Bcl2 family members.
Series [4] concerns H460 or DMS53 cells expressing Bcl2 shRNA transfected with WT Bcl2. Briefly: rescue of Bcl2-silenced cells with exogenous WT Bcl2. The following applies: 72 h. The format is cell-based.
Excerpt: as §1

Series [5] concerns wild type (WT) and Bax knockout (Bax−/−) MEF cells. The experiment in a line: apoptotic effect on WT and Bax knockout MEF cells. The format is cell-based. The protocol:
To further determine whether Bax is important for BDA-2 induction of apoptosis, the apoptotic effect of BDA-366 was tested on wild type (WT) and Bax knockout (Bax−/−) MEF cells. […] To test whether BDA-2/BH4 binding affects the IP3R/Bcl2 interaction and Ca2+ release, H460 cells were treated with increasing concentrations of BDA-366 for 24 h.

For series [6], the system named is Bcl2 and Bax in H460 xenograft tumor tissues. Briefly: QD-IHF of Bcl2 and Bax conformational change in tumor tissues. The following applies: 14 days. The format is in vivo, mice. From the text:
Quantum dot-based immunohistofluorescence (QD-IHF) technology has recently been developed as a valuable tool for simultaneous and concurrent immunostaining of multiple biomarkers in formalin-fixed paraffin-embedded (FFPE) tissues, thereby allowing for quantification of several biomarkers simultaneously on the same tissue slide. To determine whether BDA-366 induces Bcl2 conformation change by exposure of its BH3 domain in tumor tissues and whether the BH3 domain-exposed Bcl2 activates Bax, conformational changes in both Bcl2 and Bax were simultaneously analyzed by QD-IHF on the same tissue slide.

Series [7] concerns NSCLC cell lines A549 and H1299; SCLC cell lines DMS114 and H128. The experiment in a line: cell growth (SRB) and apoptosis (Annexin V/PI), lines with lower or undetectable Bcl2. The following applies: relatively lower or undetectable levels of endogenous Bcl2. The format is cell-based. The protocol:
The effect of BDA-2 on cell growth and apoptosis was measured by SRB assay and Annexin V/PI binding, respectively, in both small cell lung cancer (SCLC) and non-small cell lung cancer (NSCLC) cell lines that express various levels of endogenous Bcl2.

In another series the test system is human lung cancer cells. The experiment in a line: screening of cytotoxicity by sulforhodamine B (SRB) assay. The format is cell-based. The following applies: among top 200 docked small molecules. From the text:
A library containing approximately 300,000 small molecules from the National Cancer Institute (NCI) was used to dock the structural pocket of the BH4 domain. The small molecules were ranked according to their energy scores. The top 200 small molecules were selected for screening of cytotoxicity in human lung cancer cells by sulforhodamine B (SRB) assay.
Background: The SRB assay estimates cell density from bound dye.

Series [8] concerns H460 cells. Briefly: H460 cells: Bcl2/BH3 immunofluorescence, Bcl2 expression, mitochondrial dysfunction. The format is cell-based.
Series [9] deals with purified, human Bcl2 protein (Homo sapiens, UniProt P10415). The experiment in a line: in vitro cell-free Bcl2 conformational change assay (IP with anti-Bcl2/BH3 domain antibody). The format is biochemical. The protocol:
To test whether BDA-2 directly induces Bcl2 conformational change, an in vitro cell-free assay was employed. Purified recombinant Bcl2 protein was incubated with increasing concentrations of BDA-2 in lysis buffer, followed by immunoprecipitation (IP) using the anti-Bcl2/BH3 domain antibody.

Series [10] deals with H1299 cells overexpressing WT or Bcl2 single site mutants. The experiment in a line: cell survival of H1299 cells overexpressing exogenous WT or single site Bcl2 mutants. The format is cell-based. From the text: (§2) A panel of Bcl2 mutants were generated within the BH4 domain at the specific residues that were identified by the initial docking simulations, including D10A, N11A, R12A, E13A, M16A, K17A, H20A and D31A Bcl2 mutants. A compound Bcl2 mutant D10A/N11A/R12A/E13A (AAAA) was created. Recombinant proteins of these mutants were generated for BDA-2/Bcl2 binding analysis using a competitive fluorescence polarization. […] Second, WT and all Bcl2 mutants were exogenously overexpressed in H1299 cells that express undetectable levels of endogenous Bcl2.

A further series concerns the target Bcl-XL (Homo sapiens, UniProt Q07817). Briefly: binding to other Bcl2 family members.
Series [11] deals with H460 cells. Briefly: SRB cell growth assay, combination with mTOR inhibitor. The following applies: BDA-366 100 nM, RAD001 1 nM, alone or in combination, 72 hr. The format is cell-based, human. As to the method:
Cell growth was analyzed by sulforhodamine B (SRB) colorimetric assay.

Series [12] deals with D10A, N11A, R12A, E13A, M16A, K17A, H20A and D31A Bcl2 mutants. The experiment in a line: competitive fluorescence polarization, BH4 single-site mutants. The format is binding. Particulars: single mutation at each individual residue.
Excerpt: as §2

Where two headings read alike, the source gives them in different places.

Sequence of Bfl-1/A1 (Q16548 whole entry): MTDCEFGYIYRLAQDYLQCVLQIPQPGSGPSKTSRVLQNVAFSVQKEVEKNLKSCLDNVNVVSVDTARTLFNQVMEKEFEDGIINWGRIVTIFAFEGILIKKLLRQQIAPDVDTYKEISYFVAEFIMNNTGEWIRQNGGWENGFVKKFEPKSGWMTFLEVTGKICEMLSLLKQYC
Sequence of Bcl-XL (Q07817 whole entry, species assumed): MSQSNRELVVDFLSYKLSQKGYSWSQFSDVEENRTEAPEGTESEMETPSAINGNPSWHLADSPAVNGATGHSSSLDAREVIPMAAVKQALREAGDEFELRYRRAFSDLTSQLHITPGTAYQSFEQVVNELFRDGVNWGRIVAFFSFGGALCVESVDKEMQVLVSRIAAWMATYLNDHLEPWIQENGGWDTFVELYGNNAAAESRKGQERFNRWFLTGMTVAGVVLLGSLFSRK
Sequence of purified, human Bcl2 protein (P10415 whole entry, the tested form may be a part): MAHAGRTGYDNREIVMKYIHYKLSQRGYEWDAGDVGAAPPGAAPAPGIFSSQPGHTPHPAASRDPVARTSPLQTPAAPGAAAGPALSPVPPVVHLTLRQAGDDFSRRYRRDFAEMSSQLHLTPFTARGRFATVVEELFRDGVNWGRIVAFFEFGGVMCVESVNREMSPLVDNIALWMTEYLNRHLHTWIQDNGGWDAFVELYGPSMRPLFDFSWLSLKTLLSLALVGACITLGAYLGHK

Turning to `CCN(CC)CC(O)CNc1ccc(NCC2CO2)c2c1C(=O)c1ccccc1C2=O` (centres unmarked) [BDA-366, 1-((3-(diethylamino)-2-hydroxypropyl)amino)-4-((oxiran-2-ylmethyl)amino)anthracene-9,10-dione], the “time within which dose was uniformly lethal” value is at most 8 days in series [1] (40 mg/kg/d i.p.) and “up to 12 days” in series [1] (50 mg/kg/d i.p.). The tolerability result in series [1] (10 to 30 mg/kg/d i.p., up to 12 days) was “tolerable with no death recorded”. Further, the “sensitivity of cells restored after expression of AAAA Bcl2” value in series [2] is recorded as “not”. Further, in series [3], the “sensitivity of most human lung cancer cell lines relative to ABT-737” value is listed as “more sensitive to BDA2 than ABT-737”. Also, the “binding to Bfl-1/A1” value at Bfl-1/A1 was “failed to bind”; at Bfl-1/A1 (listed as BDA-2) it was “did not bind”. Also, the “sensitivity of cells after expression of exogenous WT Bcl2” value in series [4] was “restored sensitivity”. Further, the “resistance of Bax deficient MEF cells compared to WT MEF cells” value in series [5] was “significantly resistant”. Besides, in series [6], the “6A7 binding to Bax (active form of Bax) in tumor tissues” value was “increased level of 6A7 binding to Bax”. Besides, the “exposure of the Bcl2 BH3 domain in tumor tissues” value in series [6] is recorded as “dose-dependent exposure of the Bcl2 BH3 domain in tumor tissues”. Besides, the “total Bcl2 and Bax levels in tumor tissues” value in [6] was “no significant changes in total Bcl2 and Bax levels”. In addition, in series [7], the sensitivity of cells entry is recorded as “less sensitive”. For the same compound, the “activity against human lung cancer cells” value in the series with human lung cancer cells is “most potent activity”. For the same compound, in the series on H460 cells [8], the Bcl2 expression level result is listed as “did not significantly affect Bcl2 expression level”. Also, in the series on H460 cells [8], the “Bcl2 immunofluorescence with Bcl2/BH3-domain specific antibody” value is given as “enhanced significantly”. Also, the “mitochondrial dysfunction and apoptosis” value in the series with H460 cells [8] (MitoSOX red staining, Cyt c release, PARP cleavage) is “resulted in mitochondrial dysfunction”. Also, in [9], the “direct induction of Bcl2 conformational change (BH3 exposure)” value is given as “enhanced the ability of the Bcl2/BH3 domain-specific antibody to bind Bcl2”. For the same compound, in series [10], the “sensitivity of cells overexpressing WT or single site Bcl2 mutants” value was “enhanced sensitivity”. The “binding to Bcl-XL” value is given as “failed to bind” on Bcl-XL and “did not bind” on Bcl-XL (listed as BDA-2). Besides, the cell growth inhibition result in the series on H460 cells [11] is listed as “partially inhibited lung cancer cell growth”. Besides, the “binding to single-site Bcl2 mutants” value in [12] is recorded as “did not significantly reduce Bcl2's ability to bind BDA-2”.
